Literature values, collected in US8881894B2, “Multiple-compartment applicator” (Sonovia Holdings LLC, priority 2008, dated 2014).

Details: in water

SMILES: O=C1O[C@H]([C@@H](O)CO)C(O)=C1O [L-Ascorbic acid]
- pK of acid-ionizable hydrogen: 4.2
